Values of other authors in patent US4996231A, “Triyne cyclic carbonates” (Merck & Co., Inc., priority 1989, dated 1991).

Legend:
[1] = test system: certain bacterial strains
cytosolic β-ketothiolase = conditions: initial enzyme of cholesterol biosynthesis

C#CC#CC#CC(O)C1OC(=O)OC1CCCCCCC(=O)O (stereo not shown) [triyne carbonate A, 5-(1-hydroxy-2,4,6-heptatriynyl)-2-oxo-1,3 dioxolane 4heptanoic acid]
active against certain bacterial strains [1]: active against certain fungal and bacterial strains
active against certain fungal strains (certain fungal strains): active against certain fungal and bacterial strains
inhibitor of cytosolic β-ketothiolase (cytosolic β-ketothiolase): potent inhibitor
instability of the compound in vivo: relative instability
